Source: patent publication US9695133B2, “Quinazolinone-based oncogenic-RAS-selective lethal compounds and their use” (THE TRUSTEES OF COLUMBIA UNIVERSITY IN THE CITY OF NEW YORK, priority 2012, dated 2017)

System: HT-1080 cells
Assay: Metabolite profiling (LC-MS/MS) upon erastin treatment
Format: cell-based, human
Settings: 5 μg/mL erastin 5 h
Procedure: 2 million HT-1080 cells were seeded in 10 cm culture dishes. […] 4 mL of cold 80% methanol was added to the cell monolayer to extract polar metabolites using a cell scraper. The cell lysate/methanol mixture was transferred to a 15 mL tube and centrifuged at 2,000×g at 4° C. for 10 minutes to pellet debris and proteins. The supernatant was transferred to a new tube and stored at −80° C. for liquid chromatography-mass spectrometry/mass spectrometry (LC-MS/MS) analysis. For lipid extract preparation, 3 mL of cold 100% isopropanol was added to the cell monolayer to scrape out cells. The resulting cell lysate/isopropanol mixture was transferred to a new 15 mL tube and centrifuged at 2,000×g at 4° C. for 10 minutes. The cleared supernatant was transferred to a new tube and stored at −20° C. for LC-MS/MS analysis.
The metabolite extract was subjected to LC-MS/MS analysis to determine the quantity of each metabolite in each sample.

For `CCOc1ccccc1-n1c(C(C)N2CCN(C(=O)COc3ccc(Cl)cc3)CC2)nc2ccccc2c1=O` (stereo not drawn) [erastin], the “guanosine Erastin/DMSO” value was 4.51, the “guanosine log2 (Erastin/DMSO)” value was 2.173 and the “hippurate Erastin/DMSO” value was 1.005. For the same compound, the “hippurate log2 (Erastin/DMSO)” value was 0.007657, the “histamine Erastin/DMSO” value was 0.9526 and the “histamine log2 (Erastin/DMSO)” value was −0.07002. For the same compound, the “histidine Erastin/DMSO” value was 0.9779, the “histidine log2 (Erastin/DMSO)” value was −0.03228 and the “hydroxyphenylacetate Erastin/DMSO” value was 1.024. The “hydroxyphenylacetate log2 (Erastin/DMSO)” value was 0.03431, the “hypoxanthine Erastin/DMSO” value was 0.9819 and the “hypoxanthine log2 (Erastin/DMSO)” value was −0.02629. The “indoxylsulfate Erastin/DMSO” value was 0.7913, the “indoxylsulfate log2 (Erastin/DMSO)” value was −0.3377 and the “inosine Erastin/DMSO” value was 1.867. For the same compound, the “inosine log2 (Erastin/DMSO)” value was 0.9005, the “isocitrate Erastin/DMSO” value was 1.051 and the “isocitrate log2 (Erastin/DMSO)” value was 0.07189. The “isoleucine Erastin/DMSO” value was 0.9526, the “isoleucine log2 (Erastin/DMSO)” value was −0.07 and the “isomer_of_erythrose-4-phosphate Erastin/DMSO” value was 0.5887. For the same compound, the “isomer_of_erythrose-4-phosphate log2 (Erastin/DMSO)” value was −0.7644, the “kynurenic acid Erastin/DMSO” value was 0.8322 and the “kynurenic acid log2 (Erastin/DMSO)” value was −0.265. For the same compound, the “kynurenine Erastin/DMSO” value was 1.04, the “kynurenine log2 (Erastin/DMSO)” value was 0.05699 and the “lactate Erastin/DMSO” value was 0.884. For the same compound, the “lactate log2 (Erastin/DMSO)” value was −0.1779, the “leucine Erastin/DMSO” value was 0.9497 and the “leucine log2 (Erastin/DMSO)” value was −0.07444. For the same compound, the “lysine Erastin/DMSO” value was 0.9654, the “lysine log2 (Erastin/DMSO)” value was −0.05081 and the “malate Erastin/DMSO” value was 1.143. For the same compound, the “malate log2 (Erastin/DMSO)” value was 0.1934, the “maleate/3-methyl-2-oxobutanoate Erastin/DMSO” value was 0.9484 and the “maleate/3-methyl-2-oxobutanoate log2 (Erastin/DMSO)” value was −0.07647. For the same compound, the “malonate Erastin/DMSO” value was 1.025, the “malonate log2 (Erastin/DMSO)” value was 0.03595 and the “methionine Erastin/DMSO” value was 0.9702. For the same compound, the “methionine log2 (Erastin/DMSO)” value was −0.04361, the “niacinamide Erastin/DMSO” value was 0.9289 and the “niacinamide log2 (Erastin/DMSO)” value was −0.1065. For the same compound, the “nicotinate Erastin/DMSO” value was 1.085, the “nicotinate log2 (Erastin/DMSO)” value was 0.1179 and the “ornithine Erastin/DMSO” value was 0.9482. For the same compound, the “ornithine log2 (Erastin/DMSO)” value was −0.07676, the “orotate Erastin/DMSO” value was 1.138 and the “orotate log2 (Erastin/DMSO)” value was 0.1864. For the same compound, the “oxalate Erastin/DMSO” value was 1.019, the “oxalate log2 (Erastin/DMSO)” value was 0.02659 and the “pantothenate Erastin/DMSO” value was 1.194. The “pantothenate log2 (Erastin/DMSO)” value was 0.2564, the “phenylacetylglycine Erastin/DMSO” value was 1.135 and the “phenylacetylglycine log2 (Erastin/DMSO)” value was 0.1828. For the same compound, the “phenylalanine Erastin/DMSO” value was 1.005, the “phenylalanine log2 (Erastin/DMSO)” value was 0.007013 and the “phosphocholine Erastin/DMSO” value was 0.5252. The “phosphocholine log2 (Erastin/DMSO)” value was −0.9291, the “phosphocreatine Erastin/DMSO” value was 1.173 and the “phosphocreatine log2 (Erastin/DMSO)” value was 0.2302. The “phosphoglycerate Erastin/DMSO” value was 0.9848, the “phosphoglycerate log2 (Erastin/DMSO)” value was −0.02206 and the “phosphotyrosine Erastin/DMSO” value was 0.6533. For the same compound, the “phosphotyrosine log2 (Erastin/DMSO)” value was −0.6143, the “pimelate/3-methyladipate Erastin/DMSO” value was 1.021 and the “pimelate/3-methyladipate log2 (Erastin/DMSO)” value was 0.03006. The “proline Erastin/DMSO” value was 1.086, the “proline log2 (Erastin/DMSO)” value was 0.1195 and the “proprionate Erastin/DMSO” value was 1.092. For the same compound, the “proprionate log2 (Erastin/DMSO)” value was 0.1269, the “pyruvate Erastin/DMSO” value was 1.283 and the “pyruvate log2 (Erastin/DMSO)” value was 0.3592. The “quinolinate Erastin/DMSO” value was 1.015, the “quinolinate log2 (Erastin/DMSO)” value was 0.02178 and the “ribose-5-P Erastin/DMSO” value was 1.113. For the same compound, the “ribose-5-P log2 (Erastin/DMSO)” value was 0.155, the “ribulose-5-P Erastin/DMSO” value was 1.051 and the “ribulose-5-P log2 (Erastin/DMSO)” value was 0.07112. For the same compound, the “salicylurate Erastin/DMSO” value was 0.9637, the “salicylurate log2 (Erastin/DMSO)” value was −0.05339 and the “sebacate Erastin/DMSO” value was 0.9419. For the same compound, the “sebacate log2 (Erastin/DMSO)” value was −0.08641, the “serine Erastin/DMSO” value was 1.053 and the “serine log2 (Erastin/DMSO)” value was 0.07514. For the same compound, the “serotonin Erastin/DMSO” value was 0.7924, the “serotonin log2 (Erastin/DMSO)” value was −0.3357 and the “sorbitol Erastin/DMSO” value was 0.9709. The “sorbitol log2 (Erastin/DMSO)” value was −0.04258, the “suberate Erastin/DMSO” value was 1.003 and the “suberate log2 (Erastin/DMSO)” value was 0.004641. The “succinate/methylmalonate Erastin/DMSO” value was 1.008, the “succinate/methylmalonate log2 (Erastin/DMSO)” value was 0.01178 and the “sucrose Erastin/DMSO” value was 1.408. The “sucrose log2 (Erastin/DMSO)” value was 0.4939, the “taurine Erastin/DMSO” value was 0.8259 and the “taurine log2 (Erastin/DMSO)” value was −0.276. For the same compound, the “taurochenodeoxycholate Erastin/DMSO” value was 1.181, the “taurochenodeoxycholate log2 (Erastin/DMSO)” value was 0.2399 and the “taurocholate Erastin/DMSO” value was 1.108. The “taurocholate log2 (Erastin/DMSO)” value was 0.1484, the “taurodeoxycholate Erastin/DMSO” value was 1.168 and the “taurodeoxycholate log2 (Erastin/DMSO)” value was 0.2237. The “taurolithocholate Erastin/DMSO” value was 1.093, the “taurolithocholate log2 (Erastin/DMSO)” value was 0.1287 and the “thiamine Erastin/DMSO” value was 0.9385. The “thiamine log2 (Erastin/DMSO)” value was −0.09157, the “threonine Erastin/DMSO” value was 0.9924 and the “threonine log2 (Erastin/DMSO)” value was −0.01095. The “thymidine Erastin/DMSO” value was 1.402, the “thymidine log2 (Erastin/DMSO)” value was 0.4879 and the “thymine Erastin/DMSO” value was 1.257. For the same compound, the “thymine log2 (Erastin/DMSO)” value was 0.3302, the “thyroxine Erastin/DMSO” value was 0.8859 and the “thyroxine log2 (Erastin/DMSO)” value was −0.1748. The “triiodothyronine Erastin/DMSO” value was 0.8066, the “triiodothyronine log2 (Erastin/DMSO)” value was −0.31 and the “trimethylamine-N-oxide Erastin/DMSO” value was 1.222. For the same compound, the “trimethylamine-N-oxide log2 (Erastin/DMSO)” value was 0.2895, the “tryptophan Erastin/DMSO” value was 0.9911 and the “tryptophan log2 (Erastin/DMSO)” value was −0.01285. The “tyrosine Erastin/DMSO” value was 0.9821, the “tyrosine log2 (Erastin/DMSO)” value was −0.02607 and the “urate Erastin/DMSO” value was 1.018. The “urate log2 (Erastin/DMSO)” value was 0.0257, the “uridine Erastin/DMSO” value was 4.369 and the “uridine log2 (Erastin/DMSO)” value was 2.127. The “valine Erastin/DMSO” value was 0.9822, the “valine log2 (Erastin/DMSO)” value was −0.02594 and the “xanthine Erastin/DMSO” value was 1.027. The “xanthine log2 (Erastin/DMSO)” value was 0.03817, the “xanthosine Erastin/DMSO” value was 0.98 and the “xanthosine log2 (Erastin/DMSO)” value was −0.02909.
